Data as given in ChEMBL document CHEMBL1201862, “PubChem BioAssay data set” (2004).
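Dose response: 5 concentrations. Exposure: 48 h. Format: 96-well plates. Endpoint: linear interpolation; highest concentration if not reached. GI50 is the concentration that inhibits growth by half.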 Calls of active or inactive are those of the source. Cut-off read from the data, not from the text of the source: active = GI50 up to about 1.1 µM and inactive = higher.

Key:
Assay in all cases: inhibition of tumour cell growth, NCI panel, 48 h
786-0 = test system: 786-0
A498 = test system: A498
A549 = test system: A549
ACHN = test system: ACHN
CAKI-1 = test system: CAKI-1
CCRF-CEM = test system: CCRF-CEM
COLO 205 = test system: COLO 205
DLD-1 = test system: DLD-1
DMS-114 = test system: DMS-114
DMS-273 = test system: DMS-273
EKVX = test system: EKVX
HCC 2998 = test system: HCC 2998
HCT-116 = test system: HCT-116
HCT-15 = test system: HCT-15
HL-60 = test system: HL-60
HOP-18 = test system: HOP-18
HOP-62 = test system: HOP-62
HOP-92 = test system: HOP-92
HT-29 = test system: HT-29
IGROV-1 = test system: IGROV-1
K562 = test system: K562
KM-20L2 = test system: KM-20L2
KM12 = test system: KM12
LOX IMVI = test system: LOX IMVI
LXFL 529 = test system: LXFL 529
M14 = test system: M14
M19-MEL = test system: M19-MEL
MOLT-4 = test system: MOLT-4
Malme-3M = test system: Malme-3M
NCI-H226 = test system: NCI-H226
NCI-H23 = test system: NCI-H23
NCI-H460 = test system: NCI-H460
OVCAR-3 = test system: OVCAR-3
OVCAR-4 = test system: OVCAR-4
OVCAR-5 = test system: OVCAR-5
OVCAR-8 = test system: OVCAR-8
RPMI-8226 = test system: RPMI-8226
RXF 393 = test system: RXF 393
SF-295 = test system: SF-295
SF-539 = test system: SF-539
SK-MEL-2 = test system: SK-MEL-2
SK-MEL-5 = test system: SK-MEL-5
SK-OV-3 = test system: SK-OV-3
SN12C = test system: SN12C
SNB-19 = test system: SNB-19
SNB-75 = test system: SNB-75
SNB-78 = test system: SNB-78
SW-620 = test system: SW-620
TK-10 = test system: TK-10
U-251 = test system: U-251
UACC-257 = test system: UACC-257
UACC-62 = test system: UACC-62
UO-31 = test system: UO-31
XF498 = test system: XF498
NCI-H522 = test system: NCI-H522
SF-268 = test system: SF-268
SR = test system: SR
BT-549 = test system: BT-549
DU-145 = test system: DU-145
Hs-578T = test system: Hs-578T
MCF7 = test system: MCF7
MDA-MB-231 = test system: MDA-MB-231
MDA-MB-435 = test system: MDA-MB-435
MDA-N = test system: MDA-N
NCI/ADR-RES = test system: NCI/ADR-RES
PC-3 = test system: PC-3
SK-MEL-28 = test system: SK-MEL-28
T47D = test system: T47D

COc1nc(NC2OC(COC(C)=O)C(OC(C)=O)C(OC(C)=O)C2OC(C)=O)c2c(OC(C)=O)cc(=O)oc2n1 (stereo unspecified)
GI50 (786-0): > 100 µM (inactive)
GI50 (A498): 15.9 µM (inactive)
GI50 (A549): > 100 µM (inactive)
GI50 (ACHN): 12.5 µM (inactive)
GI50 (CAKI-1): > 100 µM (inactive)
GI50 (CCRF-CEM): > 100 µM (inactive)
GI50 (COLO 205): > 100 µM (inactive)
GI50 (DLD-1): > 100 µM (inactive)
GI50 (DMS-114): > 100 µM (inactive)
GI50 (DMS-273): > 100 µM (inactive)
GI50 (EKVX): > 100 µM (inactive)
GI50 (HCC 2998): > 100 µM (inactive)
GI50 (HCT-116): > 100 µM (inactive)
GI50 (HCT-15): > 100 µM
GI50 (HL-60): > 100 µM (inactive)
GI50 (HOP-18): > 100 µM (inactive)
GI50 (HOP-62): > 100 µM (inactive)
GI50 (HOP-92): > 100 µM (inactive)
GI50 (HT-29): > 100 µM (inactive)
GI50 (IGROV-1): > 100 µM (inactive)
GI50 (K562): > 100 µM (inactive)
GI50 (KM-20L2): > 100 µM (inactive)
GI50 (KM12): > 100 µM (inactive)
GI50 (LOX IMVI): > 100 µM (inactive)
GI50 (LXFL 529): > 100 µM (inactive)
GI50 (M14): > 100 µM (inactive)
GI50 (M19-MEL): > 100 µM (inactive)
GI50 (MOLT-4): > 100 µM (inactive)
GI50 (Malme-3M): > 100 µM (inactive)
GI50 (NCI-H226): > 100 µM (inactive)
GI50 (NCI-H23): > 100 µM (inactive)
GI50 (NCI-H460): 13.8 µM (inactive)
GI50 (OVCAR-3): > 100 µM (inactive)
GI50 (OVCAR-4): > 100 µM (inactive)
GI50 (OVCAR-5): > 100 µM (inactive)
GI50 (OVCAR-8): > 100 µM (inactive)
GI50 (RPMI-8226): > 100 µM (inactive)
GI50 (RXF 393): > 100 µM (inactive)
GI50 (SF-295): > 100 µM (inactive)
GI50 (SF-539): > 100 µM (inactive)
GI50 (SK-MEL-2): > 100 µM (inactive)
GI50 (SK-MEL-5): > 100 µM (inactive)
GI50 (SK-OV-3): > 100 µM (inactive)
GI50 (SN12C): > 100 µM (inactive)
GI50 (SNB-19): > 100 µM (inactive)
GI50 (SNB-75): > 100 µM (inactive)
GI50 (SNB-78): > 100 µM (inactive)
GI50 (SW-620): > 100 µM (inactive)
GI50 (TK-10): > 100 µM (inactive)
GI50 (U-251): > 100 µM (inactive)
GI50 (UACC-257): > 100 µM (inactive)
GI50 (UACC-62): > 100 µM (inactive)
GI50 (UO-31): > 100 µM (inactive)
GI50 (XF498): > 100 µM (inactive)

N=S(c1ccccc1)c1ccccc1[N+](=O)[O-] (stereo unspecified)
GI50 (786-0): 14.9 µM (inactive)
GI50 (A498): 34.3 µM (inactive)
GI50 (A549): 16.7 µM (inactive)
GI50 (ACHN): 17.3 µM (inactive)
GI50 (CAKI-1): 13.7 µM (inactive)
GI50 (CCRF-CEM): 11.1 µM (inactive)
GI50 (COLO 205): 19.8 µM (inactive)
GI50 (DLD-1): 18.6 µM (inactive)
GI50 (DMS-114): 18.2 µM (inactive)
GI50 (DMS-273): 18.4 µM (inactive)
GI50 (EKVX): 19.8 µM (inactive)
GI50 (HCC 2998): 19.1 µM (inactive)
GI50 (HCT-116): 17.8 µM (inactive)
GI50 (HCT-15): 16.6 µM
GI50 (HL-60): 12.9 µM (inactive)
GI50 (HOP-18): 32.6 µM (inactive)
GI50 (HOP-62): 25.6 µM (inactive)
GI50 (HT-29): 21.5 µM (inactive)
GI50 (IGROV-1): 18.1 µM (inactive)
GI50 (K562): 10.4 µM (inactive)
GI50 (KM-20L2): 21 µM (inactive)
GI50 (KM12): 18.1 µM (inactive)
GI50 (LOX IMVI): 13.1 µM (inactive)
GI50 (LXFL 529): 16.6 µM (inactive)
GI50 (M14): 14.4 µM (inactive)
GI50 (M19-MEL): 12.3 µM (inactive)
GI50 (MOLT-4): 25.3 µM (inactive)
GI50 (Malme-3M): 15.1 µM (inactive)
GI50 (NCI-H226): 11.9 µM (inactive)
GI50 (NCI-H23): 20 µM (inactive)
GI50 (NCI-H460): 28.1 µM (inactive)
GI50 (NCI-H522): 4.71 µM (inactive)
GI50 (OVCAR-3): 10.6 µM (inactive)
GI50 (OVCAR-4): 14.8 µM (inactive)
GI50 (OVCAR-5): 20.1 µM (inactive)
GI50 (OVCAR-8): 23.8 µM (inactive)
GI50 (RPMI-8226): 18.2 µM (inactive)
GI50 (SF-268): 19.8 µM (inactive)
GI50 (SF-295): 18.8 µM (inactive)
GI50 (SF-539): 18.5 µM (inactive)
GI50 (SK-MEL-2): 29.3 µM (inactive)
GI50 (SK-MEL-5): 15 µM (inactive)
GI50 (SK-OV-3): 33 µM (inactive)
GI50 (SN12C): 15.8 µM (inactive)
GI50 (SNB-19): 18.5 µM (inactive)
GI50 (SNB-75): 25.8 µM (inactive)
GI50 (SNB-78): 36.1 µM (inactive)
GI50 (SR): 18.3 µM (inactive)
GI50 (SW-620): 16.9 µM (inactive)
GI50 (TK-10): 20.4 µM (inactive)
GI50 (U-251): 17.4 µM (inactive)
GI50 (UACC-257): 18.1 µM (inactive)
GI50 (UACC-62): 16.8 µM (inactive)
GI50 (UO-31): 16 µM (inactive)
GI50 (XF498): 3.16 µM (inactive)

CC[C@H]1CN2CCc3cc(OC)c(OC)cc3[C@@H]2C[C@@H]1C[C@H]1NCCc2c1[nH]c1ccc(O)cc21 [TUBULOSINE]
GI50 (786-0): < 0.01 µM (active)
GI50 (A498): 0.0301 µM (active)
GI50 (A549): < 0.01 µM (active)
GI50 (ACHN): 0.0396 µM (active)
GI50 (BT-549): 0.191 µM (active)
GI50 (CCRF-CEM): < 0.01 µM (active)
GI50 (COLO 205): < 0.01 µM (active)
GI50 (DLD-1): 0.0279 µM (active)
GI50 (DMS-114): < 0.01 µM (active)
GI50 (DMS-273): < 0.01 µM (active)
GI50 (DU-145): < 0.01 µM (active)
GI50 (EKVX): 0.0294 µM (active)
GI50 (HCC 2998): < 0.0105 µM (active)
GI50 (HCT-116): 0.0102 µM (active)
GI50 (HCT-15): 0.384 µM
GI50 (HL-60): < 0.01 µM (active)
GI50 (HOP-18): 0.0454 µM (active)
GI50 (HOP-62): < 0.01 µM (active)
GI50 (HOP-92): 0.0105 µM (active)
GI50 (HT-29): < 0.01 µM (active)
GI50 (Hs-578T): 0.0169 µM (active)
GI50 (IGROV-1): 0.0157 µM (active)
GI50 (K562): < 0.013 µM (active)
GI50 (KM-20L2): 0.0153 µM (active)
GI50 (KM12): 0.0246 µM (active)
GI50 (LOX IMVI): < 0.01 µM (active)
GI50 (LXFL 529): 0.0202 µM (active)
GI50 (M14): < 0.0125 µM (active)
GI50 (M19-MEL): < 0.01 µM (active)
GI50 (MCF7): < 0.01 µM (active)
GI50 (MDA-MB-231): < 0.01 µM (active)
GI50 (MDA-MB-435): < 0.0125 µM (active)
GI50 (MDA-N): < 0.01 µM (active)
GI50 (MOLT-4): < 0.01 µM (active)
GI50 (Malme-3M): 0.0421 µM (active)
GI50 (NCI-H226): < 0.0113 µM (active)
GI50 (NCI-H23): < 0.0113 µM (active)
GI50 (NCI-H460): 0.0102 µM (active)
GI50 (NCI-H522): < 0.01 µM (active)
GI50 (NCI/ADR-RES): 1.73 µM (inactive)
GI50 (OVCAR-3): 0.0276 µM (active)
GI50 (OVCAR-4): < 0.01 µM (active)
GI50 (OVCAR-5): 0.0153 µM (active)
GI50 (OVCAR-8): 0.0125 µM (active)
GI50 (PC-3): < 0.0156 µM (active)
GI50 (RPMI-8226): < 0.0133 µM (active)
GI50 (RXF 393): 0.016 µM (active)
GI50 (SF-268): < 0.0105 µM (active)
GI50 (SF-295): 0.0195 µM (active)
GI50 (SF-539): 0.0164 µM (active)
GI50 (SK-MEL-28): 0.0211 µM (active)
GI50 (SK-MEL-2): 0.0137 µM (active)
GI50 (SK-MEL-5): 0.0135 µM (active)
GI50 (SK-OV-3): 0.0222 µM (active)
GI50 (SN12C): < 0.01 µM (active)
GI50 (SNB-19): < 0.01 µM (active)
GI50 (SNB-75): < 0.01 µM (active)
GI50 (SNB-78): 0.0136 µM (active)
GI50 (SR): < 0.215 µM (active)
GI50 (SW-620): < 0.0119 µM (active)
GI50 (T47D): < 0.0106 µM (active)
GI50 (TK-10): 0.0388 µM (active)
GI50 (U-251): < 0.0103 µM (active)
GI50 (UACC-257): 0.0582 µM (active)
GI50 (UACC-62): 0.0182 µM (active)
GI50 (UO-31): 0.326 µM (active)
GI50 (XF498): 0.0188 µM (active)
